# Assay results reported in ChEMBL document CHEMBL4145634, “Discovery of Janus Kinase 2 (JAK2) and Histone Deacetylase (HDAC) Dual Inhibitors as a Novel Strategy for the Combinational Treatment of Leukemia and Invasive Fungal Infections” (J Med Chem, 2018).
# pIC50: −log10 of the molar value. Activity calls are given as the source filed them. The calls are words filed in the database; no cut-off is given here.
# Columns and labels:
# HL-60 [1] = assay: Antiproliferative activity against human HL60 cells after 48 hrs by CCK-8 assay; type: functional, cell-based; conditions: HL-60, 48 h
# Candida albicans [2] = assay: microbe, parasite or virus in culture; type: functional; conditions: Candida albicans, 0304103, 48 h
# Description: Antifungal activity against FLC resistant Candida albicans 0304103 assessed as fluconazol MIC50 after 48 hrs by checkerboard microdilution method
# Candida albicans [3] = assay: Synergistic antifungal activity against FLC resistant Candida albicans 0710922 assessed as FIC index after 48 hrs by checkerboard microdilution method; type: functional
# K562 [4] = assay: Antiproliferative activity against human K562 cells after 48 hrs by CCK-8 assay; type: functional, cell-based; conditions: K562, 48 h
# Candida albicans [5] = assay: microbe, parasite or virus in culture; type: functional; conditions: Candida albicans, 0304103, 48 h; remark: listed apart in the source
# Description: Antifungal activity against FLC resistant Candida albicans 0304103 after 48 hrs in presence of fluconazol by checkerboard microdilution method
# HEL [6] = assay: Antiproliferative activity against human HEL cells after 48 hrs by CCK-8 assay; type: functional, cell-based
# Histone deacetylase 1 = Histone deacetylase 1 (Homo sapiens, UniProt Q13547); assay: Inhibition of full length human recombinant HDAC1 expressed in baculovirus expression system using (Ac-Leu-Gly-Lys(Ac)-AMC as substrate preincubated for 5 mins followed by substrate addition and measured after 30 mins by fluorescence assay
# Candida albicans [7] = assay: Antifungal activity against FLC resistant Candida albicans 100 after 48 hrs by checkerboard microdilution method; type: functional; conditions: Candida albicans, 100, 48 h
# Candida albicans [8] = assay: microbe, parasite or virus in culture; type: functional; conditions: Candida albicans, 0710922, 48 h
# Description: Antifungal activity against FLC resistant Candida albicans 0710922 after 48 hrs in presence of fluconazol by checkerboard microdilution method
# Candida albicans [9] = assay: microbe, parasite or virus in culture; type: functional; conditions: Candida albicans, 0710922, 48 h; remark: listed apart in the source
# Description: Antifungal activity against FLC resistant Candida albicans 0710922 after 48 hrs by checkerboard microdilution method
# Candida albicans [10] = assay: microbe, parasite or virus in culture; type: functional; conditions: Candida albicans, 0304103, 48 h; remark: listed apart in the source
# Description: Antifungal activity against FLC resistant Candida albicans 0304103 after 48 hrs by checkerboard microdilution method
# [11] = target: Tyrosine-protein kinase JAK2 (Homo sapiens, UniProt O60674); assay: Inhibition of JAK2 (unknown origin) using FAM-labeled peptide as substrate preincubated for 10 mins followed by substrate addition and measured after 25 mins in presence of ATP
# Candida albicans [12] = assay: Synergistic antifungal activity against FLC resistant Candida albicans 100 assessed as FIC index after 48 hrs by checkerboard microdilution method; type: functional
# Candida albicans [13] = assay: Antifungal activity against FLC resistant Candida albicans 100 after 48 hrs in presence of fluconazol by checkerboard microdilution method; type: functional; conditions: Candida albicans, 100, 48 h
# Candida albicans [14] = assay: Synergistic antifungal activity against FLC resistant Candida albicans 0304103 assessed as FIC index after 48 hrs by checkerboard microdilution method; type: functional
# Candida albicans [15] = assay: microbe, parasite or virus in culture; type: functional; conditions: Candida albicans, 100, 48 h
# Description: Antifungal activity against FLC resistant Candida albicans 100 assessed as fluconazol MIC50 after 48 hrs by checkerboard microdilution method
# Candida albicans [16] = assay: microbe, parasite or virus in culture; type: functional; conditions: Candida albicans, 0710922, 48 h; remark: listed apart in the source
# Description: Antifungal activity against FLC resistant Candida albicans 0710922 assessed as fluconazol MIC50 after 48 hrs by checkerboard microdilution method
# HEL [17] = assay: Antitumor activity in human HEL cells xenografted in SCID mouse assessed as mouse survival time at 10 mg/kg, ip qd; type: functional
# Mus musculus [18] = assay: Protection against spleen enlargement in SCID mouse xenografted with human HEL cells at 10 mg/kg, ip qd; type: functional, organism-based
# K562 [19] = assay: Antiproliferative activity against human K562 cells after 48 hrs in presence of JAK2 inhibitor CYT-387 by CCK-8 assay; type: functional, cell-based; conditions: K562, 48 h
# Mus musculus [20] = assay: In vivo antifungal activity against FLC resistant Candida albicans 0304103 infected in ICR mouse assessed as mouse survival at 5 mg/kg, ip qd up to 20 days (reference value: 4.5 day); type: functional, organism-based
# HEL [21] = assay: Antiproliferative activity against human HEL cells after 48 hrs in presence of JAK2 inhibitor CYT-387 by CCK-8 assay; type: functional, cell-based
# HEL [22] = assay: Antitumor activity against human HEL cells xenografted in BALB/C nude mouse assessed as tumor growth inhibition at 10 mg/kg, ip bid treated for 21 consecutive days relative to control; type: functional; conditions: read-out: TGI
# HL-60 [23] = assay: Antiproliferative activity against human HL60 cells after 48 hrs in presence of JAK2 inhibitor CYT-387 by CCK-8 assay; type: functional, cell-based; conditions: HL-60, 48 h
# Mus musculus [24] = assay: In vivo antifungal activity against FLC resistant Candida albicans 0304103 infected in ICR mouse assessed as mouse survival at 5 mg/kg, ip qd up to 20 days in co-treated with 1 mg/kg, ip qd fluconazol (reference value: 4.5 day); type: functional
# Histone deacetylase 1, sequence (Q13547 whole entry): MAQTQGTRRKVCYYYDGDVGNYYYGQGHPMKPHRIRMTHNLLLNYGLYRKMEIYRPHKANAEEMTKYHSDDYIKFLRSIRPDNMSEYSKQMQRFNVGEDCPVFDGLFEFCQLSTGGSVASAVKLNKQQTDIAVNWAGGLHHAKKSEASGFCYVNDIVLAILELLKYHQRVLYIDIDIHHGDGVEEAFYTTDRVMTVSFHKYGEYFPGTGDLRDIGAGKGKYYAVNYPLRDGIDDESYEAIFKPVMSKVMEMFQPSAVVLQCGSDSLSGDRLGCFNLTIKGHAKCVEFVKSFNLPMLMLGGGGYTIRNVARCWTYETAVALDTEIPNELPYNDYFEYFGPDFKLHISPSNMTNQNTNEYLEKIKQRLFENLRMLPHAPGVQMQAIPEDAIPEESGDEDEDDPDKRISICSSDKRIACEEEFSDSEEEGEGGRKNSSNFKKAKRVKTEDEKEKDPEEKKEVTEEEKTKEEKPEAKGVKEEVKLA
# Tyrosine-protein kinase JAK2, sequence (O60674 whole entry): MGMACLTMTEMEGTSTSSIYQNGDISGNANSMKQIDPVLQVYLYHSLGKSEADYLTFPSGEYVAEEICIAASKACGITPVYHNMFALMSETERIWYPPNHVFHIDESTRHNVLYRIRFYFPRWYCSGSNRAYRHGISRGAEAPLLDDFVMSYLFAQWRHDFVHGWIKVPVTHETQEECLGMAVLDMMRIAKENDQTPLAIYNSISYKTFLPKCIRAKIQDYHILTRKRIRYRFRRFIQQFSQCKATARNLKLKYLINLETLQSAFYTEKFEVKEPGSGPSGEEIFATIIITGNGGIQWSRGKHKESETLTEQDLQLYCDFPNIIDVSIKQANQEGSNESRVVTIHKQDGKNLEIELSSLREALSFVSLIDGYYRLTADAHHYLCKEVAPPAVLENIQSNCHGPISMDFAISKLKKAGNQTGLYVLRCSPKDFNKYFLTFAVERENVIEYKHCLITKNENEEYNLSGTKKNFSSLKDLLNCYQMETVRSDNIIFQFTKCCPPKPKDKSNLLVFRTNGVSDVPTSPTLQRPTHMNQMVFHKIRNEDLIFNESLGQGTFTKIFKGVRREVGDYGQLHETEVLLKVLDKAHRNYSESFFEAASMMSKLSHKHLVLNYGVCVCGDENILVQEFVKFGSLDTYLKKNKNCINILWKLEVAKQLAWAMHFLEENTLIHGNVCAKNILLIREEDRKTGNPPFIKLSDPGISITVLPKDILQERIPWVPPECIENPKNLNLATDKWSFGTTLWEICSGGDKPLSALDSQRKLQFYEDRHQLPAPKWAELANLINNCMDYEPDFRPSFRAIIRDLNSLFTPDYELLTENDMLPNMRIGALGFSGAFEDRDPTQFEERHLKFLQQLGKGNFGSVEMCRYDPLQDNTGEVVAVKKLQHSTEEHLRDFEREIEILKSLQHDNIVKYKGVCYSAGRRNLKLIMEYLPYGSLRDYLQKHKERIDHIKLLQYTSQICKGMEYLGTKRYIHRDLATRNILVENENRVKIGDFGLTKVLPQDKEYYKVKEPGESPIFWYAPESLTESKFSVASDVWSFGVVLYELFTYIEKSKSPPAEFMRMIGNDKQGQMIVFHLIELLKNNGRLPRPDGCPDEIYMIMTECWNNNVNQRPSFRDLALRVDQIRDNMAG
SMILES,pIC50 (HL-60 [1]),MIC50 (Candida albicans [2]),fractional inhibitory concentration index (FICI) (Candida albicans [3]),pIC50 (K562 [4]),MIC50 (Candida albicans [5]),pIC50 (HEL [6]),pIC50 (Histone deacetylase 1),MIC50 (Candida albicans [7]),MIC50 (Candida albicans [8]),MIC50 (Candida albicans [9]),MIC50 (Candida albicans [10]),pIC50 [11],fractional inhibitory concentration index (FICI) (Candida albicans [12]),MIC50 (Candida albicans [13]),fractional inhibitory concentration index (FICI) (Candida albicans [14]),MIC50 (Candida albicans [15]),MIC50 (Candida albicans [16]),other results
CS(=O)(=O)Nc1ccc(-c2ccnc(Nc3ccc(N4CCC(C(=O)NCc5ccc(C(=O)NO)cc5)CC4)cc3)n2)cc1,< 4.30,2 µg/mL,1.01,5.00,8 µg/mL,5.20,5.96,> 64 µg/mL,64 µg/mL,> 64 µg/mL,> 64 µg/mL,7.74,0.078,4 µg/mL,0.15,1 µg/mL,0.5 µg/mL,–
N#CCNC(=O)c1ccc(-c2ccnc(Nc3ccc(N4CCC(C(=O)Nc5ccc(/C=C/C(=O)NO)cc5)CC4)cc3)n2)cc1,< 4.30,1 µg/mL,0.31,< 4.30,4 µg/mL,< 4.30,5.29,> 64 µg/mL,16 µg/mL,> 64 µg/mL,> 64 µg/mL,7.82,1.02,64 µg/mL,0.078,1 µg/mL,2 µg/mL,–
CS(=O)(=O)Nc1ccc(-c2ccnc(Nc3ccc(N4CCC(C(=O)NCCCCC(=O)NO)CC4)cc3)n2)cc1,< 4.30,0.5 µg/mL,0.51,4.96,16 µg/mL,5.09,5.66,> 64 µg/mL,32 µg/mL,> 64 µg/mL,32 µg/mL,9.00,0.26,16 µg/mL,0.5,0.5 µg/mL,0.5 µg/mL,–
CS(=O)(=O)Nc1ccc(-c2ccnc(Nc3ccc(N4CCC(C(=O)Nc5ccccc5N)CC4)cc3)n2)cc1,4.80,> 64 µg/mL,>2,5.02,> 64 µg/mL,5.49,5.68,> 64 µg/mL,> 64 µg/mL,> 64 µg/mL,> 64 µg/mL,8.70,2,64 µg/mL,>2,64 µg/mL,> 64 µg/mL,–
CS(=O)(=O)Nc1ccc(-c2ccnc(Nc3ccc(N4CCC(C(=O)NCCCCCCC(=O)NO)CC4)cc3)n2)cc1,4.92,0.5 µg/mL,0.5,5.05,8 µg/mL,5.41,6.60,> 64 µg/mL,32 µg/mL,> 64 µg/mL,> 64 µg/mL,8.70,0.13,8 µg/mL,0.13,0.25 µg/mL,0.25 µg/mL,–
CS(=O)(=O)Nc1ccc(-c2ccnc(Nc3ccc(N4CCC(C(=O)NCCCCCC(=O)NO)CC4)cc3)n2)cc1,4.43,0.5 µg/mL,2,5.00,16 µg/mL,4.77,6.46,32 µg/mL,64 µg/mL,> 64 µg/mL,32 µg/mL,8.52,0.5,16 µg/mL,0.5,0.25 µg/mL,64 µg/mL,–
CS(=O)(=O)Nc1ccc(-c2ccnc(Nc3ccc(N4CCC(C(=O)NCCCC(=O)NO)CC4)cc3)n2)cc1,< 4.30,4 µg/mL,0.51,4.92,8 µg/mL,4.92,5.04,> 64 µg/mL,32 µg/mL,> 64 µg/mL,32 µg/mL,9.00,0.14,8 µg/mL,0.31,1 µg/mL,0.5 µg/mL,–
N#CCNC(=O)c1ccc(-c2ccnc(Nc3ccc(N4CCC(C(=O)NO)CC4)cc3)n2)cc1,< 4.30,0.25 µg/mL,1.02,< 4.30,8 µg/mL,< 4.30,5.57,> 64 µg/mL,64 µg/mL,> 64 µg/mL,> 64 µg/mL,8.40,0.039,2 µg/mL,0.13,0.5 µg/mL,1 µg/mL,–
Nc1cc(F)ccc1NC(=O)/C=C/c1cnn(C/C=C/c2ccccc2)c1,4.47 to 4.66,–,–,4.47 to 4.66,–,4.47 to 4.66,–,> 64 µg/mL,–,> 64 µg/mL,> 64 µg/mL,–,–,–,–,–,–,Activity (HEL [17]): inactive; Activity (Mus musculus [18]): inactive; pIC50 (K562 [19]): 5.38 to 5.79; Activity (Mus musculus [20]): inactive; pIC50 (HEL [21]): 5.38 to 5.79; inhibition in vivo at 10 mg/kg (HEL [22]): 16.4%; pIC50 (HL-60 [23]): 5.38 to 5.79; MST (Mus musculus [24]): 5 days
CS(=O)(=O)Nc1ccc(-c2ccnc(Nc3ccc(N4CCC(C(=O)NO)CC4)cc3)n2)cc1,< 4.30,0.5 µg/mL,0.51,4.74,4 µg/mL,< 4.30,5.54,> 64 µg/mL,32 µg/mL,> 64 µg/mL,> 64 µg/mL,9.00,0.14,8 µg/mL,0.07,1 µg/mL,0.25 µg/mL,–
N#CCNC(=O)c1ccc(-c2ccnc(Nc3ccc(N4CCC(C(=O)Nc5ccc(C(=O)NO)cc5)CC4)cc3)n2)cc1,< 4.30,0.5 µg/mL,>2,< 4.30,64 µg/mL,< 4.30,4.62,> 64 µg/mL,> 64 µg/mL,> 64 µg/mL,> 64 µg/mL,7.80,1.03,64 µg/mL,1.01,2 µg/mL,> 64 µg/mL,–
Nc1ccccc1NC(=O)c1ccc(-c2ccnc(Nc3ccc(N4CCOCC4)cc3)n2)cc1,< 4.30,> 64 µg/mL,>2,< 4.30,> 64 µg/mL,< 4.30,< 4.30,> 64 µg/mL,> 64 µg/mL,> 64 µg/mL,> 64 µg/mL,6.96,1.01,64 µg/mL,>2,0.5 µg/mL,> 64 µg/mL,–
N#CCNC(=O)c1ccc(-c2ccnc(Nc3ccc(N4CCC(C(=O)Nc5ccccc5N)CC4)cc3)n2)cc1,< 4.30,> 64 µg/mL,2,< 4.30,> 64 µg/mL,5.18,5.77,> 64 µg/mL,64 µg/mL,> 64 µg/mL,> 64 µg/mL,8.10,>2,> 64 µg/mL,>2,> 64 µg/mL,64 µg/mL,–
CS(=O)(=O)Nc1ccc(-c2ccnc(Nc3ccc(N4CCC(C(=O)Nc5ccc(C(=O)NO)cc5)CC4)cc3)n2)cc1,4.96,> 64 µg/mL,>2,5.07,> 64 µg/mL,5.70,6.42,> 64 µg/mL,> 64 µg/mL,> 64 µg/mL,> 64 µg/mL,8.70,1.25,64 µg/mL,>2,16 µg/mL,> 64 µg/mL,–
